Test results reported in PubChem BioAssay (NCI).
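48-hour exposure; five concentrations; linearly interpolated endpoints. TGI: total growth inhibition.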

Legend:
Assay in all cases: growth of human tumour cells (NCI), 48 h
HCC-2998 colon = tested on: HCC-2998 colon
TK-10 renal = tested on: TK-10 renal
EKVX NSCLC = tested on: EKVX NSCLC
IGROV1 ovarian = tested on: IGROV1 ovarian
OVCAR-5 ovarian = tested on: OVCAR-5 ovarian
HS 578T breast = tested on: HS 578T breast
SK-MEL-28 melanoma = tested on: SK-MEL-28 melanoma
NCI-H23 lung = tested on: NCI-H23 lung
MCF7 breast = tested on: MCF7 breast
786-0 renal = tested on: 786-0 renal
NCI-H460 lung = tested on: NCI-H460 lung
HT29 colon = tested on: HT29 colon
SF-539 CNS = tested on: SF-539 CNS
SK-MEL-5 melanoma = tested on: SK-MEL-5 melanoma
HCT-116 colon = tested on: HCT-116 colon
SW-620 colon = tested on: SW-620 colon
A498 renal = tested on: A498 renal
PC-3 prostate = tested on: PC-3 prostate
SF-295 CNS = tested on: SF-295 CNS
DU-145 prostate = tested on: DU-145 prostate
MDA-MB-231 breast = tested on: MDA-MB-231 breast
HL-60(TB) leukemia = tested on: HL-60(TB) leukemia
UACC-257 melanoma = tested on: UACC-257 melanoma
OVCAR-4 ovarian = tested on: OVCAR-4 ovarian
MDA-N = tested on: MDA-N
MDA-MB-435 = tested on: MDA-MB-435
UO-31 renal = tested on: UO-31 renal
HOP-62 NSCLC = tested on: HOP-62 NSCLC
RXF 393 renal = tested on: RXF 393 renal
NCI-H226 lung = tested on: NCI-H226 lung
HOP-92 NSCLC = tested on: HOP-92 NSCLC
BT-549 breast = tested on: BT-549 breast
NCI-H522 lung = tested on: NCI-H522 lung
RPMI-8226 leukemia = tested on: RPMI-8226 leukemia
COLO 205 colon = tested on: COLO 205 colon
K-562 leukemia = tested on: K-562 leukemia
ACHN renal = tested on: ACHN renal
KM12 colon = tested on: KM12 colon
OVCAR-8 ovarian = tested on: OVCAR-8 ovarian
CAKI-1 renal = tested on: CAKI-1 renal
SNB-19 CNS = tested on: SNB-19 CNS
HCT-15 colon = tested on: HCT-15 colon
LOX IMVI melanoma = tested on: LOX IMVI melanoma
NCI/ADR-RES ovarian = tested on: NCI/ADR-RES ovarian
OVCAR-3 ovarian = tested on: OVCAR-3 ovarian
SN12C renal = tested on: SN12C renal
SR leukemia = tested on: SR leukemia
U251 CNS = tested on: U251 CNS
CCRF-CEM leukemia = tested on: CCRF-CEM leukemia
A549 NSCLC = tested on: A549 NSCLC
MOLT-4 leukemia = tested on: MOLT-4 leukemia
SF-268 CNS = tested on: SF-268 CNS
SNB-75 CNS = tested on: SNB-75 CNS
MALME-3M melanoma = tested on: MALME-3M melanoma
SK-MEL-2 melanoma = tested on: SK-MEL-2 melanoma
M14 melanoma = tested on: M14 melanoma
SK-OV-3 ovarian = tested on: SK-OV-3 ovarian

O=[N+]([O-])c1ccc2c(c1)Sc1ccccc1N2CCCCCl
TGI (HCC-2998 colon): > 100 µM | TGI (TK-10 renal): > 100 µM | TGI (EKVX NSCLC): > 100 µM | TGI (IGROV1 ovarian): > 100 µM | TGI (OVCAR-5 ovarian): > 100 µM | TGI (HS 578T breast): > 100 µM | TGI (SK-MEL-28 melanoma): > 100 µM | TGI (NCI-H23 lung): > 100 µM | TGI (MCF7 breast): > 100 µM | TGI (786-0 renal): > 100 µM | TGI (NCI-H460 lung): > 100 µM | TGI (HT29 colon): > 100 µM | TGI (SF-539 CNS): > 100 µM | TGI (SK-MEL-5 melanoma): > 100 µM | TGI (HCT-116 colon): > 100 µM | TGI (SW-620 colon): > 100 µM | TGI (A498 renal): > 100 µM | TGI (PC-3 prostate): > 100 µM | TGI (SF-295 CNS): > 100 µM | TGI (DU-145 prostate): > 100 µM | TGI (MDA-MB-231 breast): > 100 µM | TGI (HL-60(TB) leukemia): > 100 µM | TGI (UACC-257 melanoma): > 100 µM | TGI (OVCAR-4 ovarian): > 100 µM | TGI (MDA-N): > 100 µM | TGI (MDA-MB-435): > 100 µM | TGI (UO-31 renal): > 100 µM | TGI (HOP-62 NSCLC): > 100 µM | TGI (RXF 393 renal): > 100 µM | TGI (NCI-H226 lung): > 100 µM | TGI (HOP-92 NSCLC): > 100 µM | TGI (BT-549 breast): > 100 µM | TGI (NCI-H522 lung): > 100 µM | TGI (RPMI-8226 leukemia): > 100 µM | TGI (COLO 205 colon): > 100 µM | TGI (K-562 leukemia): > 100 µM | TGI (ACHN renal): > 100 µM | TGI (KM12 colon): > 100 µM | TGI (OVCAR-8 ovarian): > 100 µM | TGI (CAKI-1 renal): > 100 µM | TGI (SNB-19 CNS): > 100 µM | TGI (HCT-15 colon): > 100 µM | TGI (LOX IMVI melanoma): > 100 µM | TGI (NCI/ADR-RES ovarian): > 100 µM | TGI (OVCAR-3 ovarian): > 100 µM | TGI (SN12C renal): > 100 µM | TGI (SR leukemia): > 100 µM | TGI (U251 CNS): > 100 µM | TGI (CCRF-CEM leukemia): > 100 µM | TGI (A549 NSCLC): > 100 µM | TGI (MOLT-4 leukemia): > 100 µM | TGI (SF-268 CNS): > 100 µM | TGI (SNB-75 CNS): > 100 µM

CC(=O)O[C@H]1CC2C(C3CCC(C(C)CCC(=O)O)[C@]31C)[C@H](OC(C)=O)C[C@@H]1CC3(CC[C@]21C)OOC1(CC[C@]2(C)C4C[C@H](OC(C)=O)[C@]5(C)C(C(C)CCC(=O)O)CCC5C4[C@H](OC(C)=O)C[C@@H]2C1)OO3 (some centres undefined)
TGI (HCC-2998 colon): 3.8 µM | TGI (TK-10 renal): 6.8 µM | TGI (EKVX NSCLC): 9.67 µM | TGI (IGROV1 ovarian): 4.25 µM | TGI (OVCAR-5 ovarian): 3.5 µM | TGI (HS 578T breast): 4.1 µM | TGI (SK-MEL-28 melanoma): > 100 µM | TGI (NCI-H23 lung): 4.08 µM | TGI (MCF7 breast): 12.3 µM | TGI (786-0 renal): 9.32 µM | TGI (MALME-3M melanoma): 3.13 µM | TGI (HT29 colon): > 100 µM | TGI (SK-MEL-5 melanoma): 3.11 µM | TGI (HCT-116 colon): 3.85 µM | TGI (SW-620 colon): > 100 µM | TGI (PC-3 prostate): 3.85 µM | TGI (SF-295 CNS): 4.72 µM | TGI (DU-145 prostate): 4.48 µM | TGI (MDA-MB-231 breast): 3.85 µM | TGI (HL-60(TB) leukemia): 3.65 µM | TGI (UACC-257 melanoma): 4.68 µM | TGI (OVCAR-4 ovarian): 9.84 µM | TGI (MDA-N): 5.91 µM | TGI (MDA-MB-435): 4.31 µM | TGI (UO-31 renal): 3.32 µM | TGI (HOP-62 NSCLC): 3.97 µM | TGI (NCI-H226 lung): 4.21 µM | TGI (BT-549 breast): 4.11 µM | TGI (NCI-H522 lung): 3.03 µM | TGI (SK-MEL-2 melanoma): 3.64 µM | TGI (M14 melanoma): 8.31 µM | TGI (RPMI-8226 leukemia): 14.7 µM | TGI (COLO 205 colon): 4.24 µM | TGI (K-562 leukemia): > 100 µM | TGI (ACHN renal): 3.44 µM | TGI (KM12 colon): 3.17 µM | TGI (OVCAR-8 ovarian): 4.97 µM | TGI (CAKI-1 renal): 5.15 µM | TGI (SNB-19 CNS): > 100 µM | TGI (HCT-15 colon): 6.39 µM | TGI (LOX IMVI melanoma): 3.11 µM | TGI (NCI/ADR-RES ovarian): 26.7 µM | TGI (OVCAR-3 ovarian): 3.53 µM | TGI (SN12C renal): 6.02 µM | TGI (SK-OV-3 ovarian): 11.6 µM | TGI (SR leukemia): 9.55 µM | TGI (U251 CNS): 2.59 µM | TGI (CCRF-CEM leukemia): 9.87 µM | TGI (A549 NSCLC): 5.19 µM | TGI (MOLT-4 leukemia): 13.1 µM | TGI (SF-268 CNS): 4.01 µM
